Data on two compounds can be found in patent publication US20240287081A1, “PERFLUOROALKANE SUBSTITUTED PYRAZOLO[3,4-D]PYRIMIDIN AND PYRROLO[2,3-D]PYRIMIDIN COMPOUNDS AND USES THEREOF” (ICAHN SCHOOL OF MEDICINE AT MOUNT SINAI, priority 2021, published 2024).

Data set [1] has as its system ptc>dRet^M955T flies. Briefly: Fly rescue assay (Drosophila MTC model ptc>dRet^M955T). In kind it is in vivo. The following applies: compound in fly food, 13 d at 25° C., baseline viability 0%.
Data set [2] is described as follows: Caco-2 permeability assay. The following applies: human, 1 hour at 37° C., HBSS pH 7.4 both sides, read-out: influx/efflux ratio in Caco-2. It counts as in vitro ADME. The protocol:
(§1) FIGS. 9A-9C show the physicochemical comparison of R^F and R^H Analogs. FIG. 9A is a graph of the MDCK and Caco-2 permeability assays for the indicated compounds. Compounds were assayed at 5 μM and transport (Papp, B-A and Papp, A-B, ×10^−6 cm/s) values were measured to determine influx over efflux ratios. […] There are differences in magnitude for bond and molecular dipoles, and R^F- and R^H-substituents have opposite charge profiles.
(§2) Caco-2 and MDCK permeability assays to assess transport in both directions, apical to basolateral (A-B) and basolateral to apical (B-A), across a cell monolayer were conducted at Quintara Discovery. The compounds were tested at a final concentration of 5 microM, with HBSS, pH 7.4 on apical side and HBSS, pH 7.4 on basolateral side. Transport was allowed to proceed for 1 hour at 37° C., with compound detection performed by LC-MS/MS. Assays were conducted twice. Papp, B-A and Papp, A-B, ×10^−6 cm/s values were determined at Quintara.

Data set [3] has as its system human MTC cell line TT. The following applies: previous work; cited from earlier work.
Data set [4] deals with P-gp. Briefly: MDCK permeability assay. In kind it is in vitro ADME. To be noted: dog, 1 hour at 37° C., HBSS pH 7.4 both sides, read-out: influx/efflux ratio in MDCK. The protocol: as §1, §2
The conditions of data set [5]: cited from earlier work.

As for `CNC(=O)c1cc(Oc2ccc(NC(=O)Nc3cc(C(F)(C(F)(F)F)C(F)(F)F)ccc3F)cc2)ccn1` [APS-6-45], in data set [1], the “rescue (percent viability of adult flies, adults/pupae×100)” value came to 84%. Further, the efflux ratio at 1 h, 5 µM in data set [2] was above 2; in data set [4], below 2. In addition, in data set [3], the “performance in mouse xenograft, in words” value was “performed well”.
As for `CNC(=O)c1cc(Oc2ccc(NC(=O)Nc3ccc(Cl)c(C(F)(F)F)c3)cc2)ccn1` [Sorafenib, sorafenib], the “protein-bound in blood plasma” value in data set [5] was above 99%. Also, the efflux ratio at 1 h, 5 µM was above 2 in data set [2] and below 2 in data set [4].
